Active and inactive are the calls of the source. The rule behind the calls is not given here.
Assays:
LOX IMVI [1] = assay: Growth inhibition against human LOX IMVI cells assessed as lethal concentration incubated for 48 hrs by sulforhodamine B spectrophotometric assay; format: functional; conditions: read-out: LC50 (the source's name)
COLO 205 [2] = assay: Growth inhibition of human COLO 205 cells incubated for 48 hrs by sulforhodamine B spectrophotometric assay; format: functional
UO-31 = assay: Growth inhibition against human UO-31 cells assessed as lethal concentration incubated for 48 hrs by sulforhodamine B spectrophotometric assay; format: functional; conditions: read-out: LC50 (the source's name)
NCI-H322M = assay: Growth inhibition of human NCI-H322M cells incubated for 48 hrs by sulforhodamine B spectrophotometric assay; format: functional
CCRF-CEM [3] = assay: Induction of cell cycle arrest in human CCRF-CEM cells assessed as accumulation of cells at S phase at 4.14 uM incubated for 24 hrs by propidium iodide staining based flow cytometry analysis (reference value: 41.09 +/- 0.5%); format: functional
SN12C = assay: Growth inhibition against human SN12C cells assessed as lethal concentration incubated for 48 hrs by sulforhodamine B spectrophotometric assay; format: functional; conditions: read-out: LC50 (the source's name)
DU-145 [4] = assay: Anticancer activity against human DU-145 cells assessed as cell growth at 10 uM incubated for 48 hrs by sulforhodamine B assay; format: functional; conditions: read-out: Activity
SK-OV-3 [5] = assay: Growth inhibition against human SK-OV-3 cells assessed as lethal concentration incubated for 48 hrs by sulforhodamine B spectrophotometric assay; format: functional; conditions: read-out: LC50 (the source's name)
MDA-MB-231 [6] = assay: Induction of apoptosis in human MDA-MB-231 cells assessed as increase in caspase 3/7 activity at 10 uM incubated for 24 hrs by flow cytometry analysis; format: functional
SK-MEL-5 = assay: Anticancer activity against human SK-MEL-5 cells assessed as cell growth at 10 uM incubated for 48 hrs by sulforhodamine B assay; format: functional; conditions: read-out: Activity
K562 [7] = assay: Growth inhibition against human K562 cells assessed as total growth inhibitory concentration incubated for 48 hrs by sulforhodamine B spectrophotometric assay; format: functional
SK-OV-3 [8] = assay: Growth inhibition of human SK-OV-3 cells incubated for 48 hrs by sulforhodamine B spectrophotometric assay; format: functional
IGROV-1 = assay: Growth inhibition against human IGROV-1 cells assessed as lethal concentration incubated for 48 hrs by sulforhodamine B spectrophotometric assay; format: functional; conditions: read-out: LC50 (the source's name)
[9] = Acute toxicity in C57BL/6 mouse assessed as decrease in body mass at 20 mg/kg,ip administration observed after 22 days; format: organism-based; conditions: in vivo, 528 h, time 22 day
K562 [10] = assay: Growth inhibition of human K562 cells incubated for 48 hrs by sulforhodamine B spectrophotometric assay; format: functional
MDA-MB-468 = assay: Growth inhibition against human MDA-MB-468 cells assessed as total growth inhibitory concentration incubated for 48 hrs by sulforhodamine B spectrophotometric assay; format: functional
LOX IMVI [11] = assay: Growth inhibition of human LOX IMVI cells incubated for 48 hrs by sulforhodamine B spectrophotometric assay; format: functional
786-0 = assay: Growth inhibition against human 786-0 cells assessed as lethal concentration incubated for 48 hrs by sulforhodamine B spectrophotometric assay; format: functional; conditions: read-out: LC50 (the source's name)
EKVX = assay: Growth inhibition against human EKVX cells assessed as lethal concentration incubated for 48 hrs by sulforhodamine B spectrophotometric assay; format: functional; conditions: read-out: LC50 (the source's name)
[12] = Acute toxicity in C57BL/6 mouse assessed as ratio of neutrophil to lymphocyte count at 20 mg/kg,ip administration and observed after 22 days; format: organism-based; conditions: in vivo, 528 h, time 22 day
COLO 205 [13] = assay: Growth inhibition against human COLO 205 cells assessed as total growth inhibitory concentration incubated for 48 hrs by sulforhodamine B spectrophotometric assay; format: functional
MDA-MB-231 [14] = assay: Growth inhibition against human MDA-MB-231 cells assessed as lethal concentration incubated for 48 hrs by sulforhodamine B spectrophotometric assay; format: functional; conditions: read-out: LC50 (the source's name)
CCRF-CEM [15] = assay: Induction of cell cycle arrest in human CCRF-CEM cells assessed as accumulation of cells at G2/M phase at 4.14 uM incubated for 24 hrs by propidium iodide staining based flow cytometry analysis (reference value: 20.24 +/- 0.25%); format: functional
NCI-H522 = assay: Growth inhibition against human NCI-H522 cells assessed as total growth inhibitory concentration incubated for 48 hrs by sulforhodamine B spectrophotometric assay; format: functional
DU-145 [16] = assay: Growth inhibition against human DU-145 cells assessed as total growth inhibitory concentration incubated for 48 hrs by sulforhodamine B spectrophotometric assay; format: functional
SW-620 = assay: Growth inhibition of human SW620 cells incubated for 48 hrs by sulforhodamine B spectrophotometric assay; format: functional
SNB-75 = assay: Growth inhibition against human SNB-75 cells assessed as total growth inhibitory concentration incubated for 48 hrs by sulforhodamine B spectrophotometric assay; format: functional
A549 = assay: Growth inhibition against human A549 cells assessed as total growth inhibitory concentration incubated for 48 hrs by sulforhodamine B spectrophotometric assay; format: functional
A498 = assay: Growth inhibition against human A498 cells assessed as lethal concentration incubated for 48 hrs by sulforhodamine B spectrophotometric assay; format: functional; conditions: read-out: LC50 (the source's name)
KB 3-1 = assay: Induction of apoptosis in human KB 3-1 cells assessed as increase in […] protein expression at 0.5 to 5 uM incubated for 3 hrs by Western blotting assay; format: functional, cell-based; conditions: dose 0.5-5 µM
RPMI-8226 = assay: Growth inhibition against human RPMI-8226 cells assessed as total growth inhibitory concentration incubated for 48 hrs by sulforhodamine B spectrophotometric assay; format: functional
Salmon testes DNA = assay: Displacement of methyl green from salmon sperm DNA assessed as DNA intercalation at 10 uM incubated for 24 hrs by fluorescence plate reader method relative to control; format: nucleic-acid assay; conditions: Salmo salar
NCI/ADR-RES = assay: Growth inhibition of human NCI/ADR-RES cells incubated for 48 hrs by sulforhodamine B spectrophotometric assay; format: functional
Hs-578T = assay: Growth inhibition against human Hs-578T cells assessed as lethal concentration incubated for 48 hrs by sulforhodamine B spectrophotometric assay; format: functional; conditions: read-out: LC50 (the source's name)
OVCAR-5 = assay: Growth inhibition against human OVCAR-5 cells assessed as lethal concentration incubated for 48 hrs by sulforhodamine B spectrophotometric assay; format: functional; conditions: read-out: LC50 (the source's name)
BT-549 [17] = assay: Growth inhibition against human BT-549 cells assessed as lethal concentration incubated for 48 hrs by sulforhodamine B spectrophotometric assay; format: functional; conditions: read-out: LC50 (the source's name)
MDA-MB-231 [18] = assay: Induction of apoptosis in human MDA-MB-231 cells at 10 uM incubated for 24 hrs by Annexin-V-FITC/propidium iodide staining based flow cytometry analysis (reference value: 8.9%); format: functional
BT-549 [19] = assay: Growth inhibition of human BT-549 cells incubated for 48 hrs by sulforhodamine B spectrophotometric assay; format: functional
OVCAR-3 = assay: Growth inhibition of human OVCAR-3 cells incubated for 48 hrs by sulforhodamine B spectrophotometric assay; format: functional
CAKI-1 = assay: Growth inhibition against human CAKI-1 cells assessed as total growth inhibitory concentration incubated for 48 hrs by sulforhodamine B spectrophotometric assay; format: functional
CCRF-CEM [20] = assay: Induction of cell cycle arrest in human CCRF-CEM cells assessed as accumulation of cells at G2/M phase at 20.7 uM incubated for 24 hrs by propidium iodide staining based flow cytometry analysis (reference value: 20.24 +/- 0.25%); format: functional
KM12 = assay: Growth inhibition against human KM12 cells assessed as lethal concentration incubated for 48 hrs by sulforhodamine B spectrophotometric assay; format: functional; conditions: read-out: LC50 (the source's name)
SK-MEL-28 = assay: Growth inhibition against human SK-MEL-28 cells assessed as lethal concentration incubated for 48 hrs by sulforhodamine B spectrophotometric assay; format: functional; conditions: read-out: LC50 (the source's name)

**Q.** Which CC50 (LOX IMVI [1]) does the source give for `O=C1C2=C(C(=O)c3c(O)cccc31)C(c1ccco1)c1sc(=O)[nH]c1S2` (stereo not drawn) here?
**A.** 84 µM

**Q.** What about the GI50 (COLO 205 [2]) of the same compound?
**A.** 1.89 µM

**Q.** And the CC50 (UO-31)?
**A.** 36.7 µM

**Q.** And the GI50 (NCI-H322M)?
**A.** 1.71 µM

**Q.** What about the Activity (CCRF-CEM [3]) of the same compound?
**A.** 41.83%

**Q.** What about the CC50 (SN12C) of the same compound?
**A.** 6.99 µM

**Q.** What about the growth at 10 µM (DU-145 [4]) of the same compound?
**A.** -93.9%

**Q.** And the CC50 (SK-OV-3 [5])?
**A.** 56.5 µM

**Q.** And the Activity (MDA-MB-231 [6])?
**A.** 20.6%

**Q.** And the growth at 10 µM (SK-MEL-5)?
**A.** -93.4%

**Q.** And the TGI (K562 [7])?
**A.** > 100 µM

**Q.** What about the GI50 (SK-OV-3 [8]) of the same compound?
**A.** 15.5 µM

**Q.** And the CC50 (IGROV-1)?
**A.** 38 µM

**Q.** And the Activity [9]?
**A.** Toxic

**Q.** And the GI50 (K562 [10])?
**A.** 2.84 µM

**Q.** What about the TGI (MDA-MB-468) of the same compound?
**A.** 6.59 µM

**Q.** What about the GI50 (LOX IMVI [11]) of the same compound?
**A.** 2.21 µM

**Q.** And the CC50 (786-0)?
**A.** 71.2 µM

**Q.** What about the CC50 (EKVX) of the same compound?
**A.** 44.3 µM

**Q.** What about the Ratio [12] of the same compound?
**A.** 0.465

**Q.** And the TGI (COLO 205 [13])?
**A.** 3.61 µM

**Q.** What about the CC50 (MDA-MB-231 [14]) of the same compound?
**A.** > 100 µM

**Q.** And the Activity (CCRF-CEM [15])?
**A.** 23.82%

**Q.** And the TGI (NCI-H522)?
**A.** 6.99 µM

**Q.** What about the TGI (DU-145 [16]) of the same compound?
**A.** 3.01 µM

**Q.** What about the GI50 (SW-620) of the same compound?
**A.** 3.28 µM

**Q.** And the TGI (SNB-75)?
**A.** 7.61 µM

**Q.** What about the TGI (A549) of the same compound?
**A.** 3.63 µM

**Q.** What about the CC50 (A498) of the same compound?
**A.** 31.6 µM

**Q.** What about the Activity (KB 3-1) of the same compound?
**A.** inactive

**Q.** What about the TGI (RPMI-8226) of the same compound?
**A.** 9.83 µM

**Q.** What about the Activity (Salmon testes DNA) of the same compound?
**A.** 44.3%

**Q.** What about the GI50 (NCI/ADR-RES) of the same compound?
**A.** 3.02 µM

**Q.** And the CC50 (Hs-578T)?
**A.** > 100 µM

**Q.** And the CC50 (OVCAR-5)?
**A.** 9.85 µM

**Q.** What about the CC50 (BT-549 [17]) of the same compound?
**A.** 6.22 µM

**Q.** And the Activity (MDA-MB-231 [18])?
**A.** 28.2%

**Q.** What about the GI50 (BT-549 [19]) of the same compound?
**A.** 1.64 µM

**Q.** What about the GI50 (OVCAR-3) of the same compound?
**A.** 2.86 µM

**Q.** What about the TGI (CAKI-1) of the same compound?
**A.** 13.9 µM

**Q.** What about the Activity (CCRF-CEM [20]) of the same compound?
**A.** 22.09%

**Q.** What about the CC50 (KM12) of the same compound?
**A.** > 100 µM

**Q.** And the CC50 (SK-MEL-28)?
**A.** 7.42 µM
